Measurements published in patent publication US20220306603A1, “TARGETING DNA REPAIR IN TUMOR CELLS VIA INHIBITION OF ERCC1-XPF” (The Governors of the University of Alberta, priority 2019, published 2022).
Entries after “also recorded” stand apart in the source; their conditions may differ. Where two headings read alike, the source gives them in different places.

What was measured:
[1] = Stability of the compound over time; type: physicochemical
[2] = molecular target: T1, ERCC1-XPF (Homo sapiens, UniProt Q92889); experiment: Microplate fluorescence incision assay of ERCC1-XPF endonuclease activity; type: biochemical; details: for IC50: at least three experiments of Vo versus concentration; for inhibition of ERCC1-XPF endonuclease activity (in words): compounds 10 μM each
T1 construct: His6; made in house; host or cells: E. coli BL21 (DE3)
T1 sequence (Q92889 1-916): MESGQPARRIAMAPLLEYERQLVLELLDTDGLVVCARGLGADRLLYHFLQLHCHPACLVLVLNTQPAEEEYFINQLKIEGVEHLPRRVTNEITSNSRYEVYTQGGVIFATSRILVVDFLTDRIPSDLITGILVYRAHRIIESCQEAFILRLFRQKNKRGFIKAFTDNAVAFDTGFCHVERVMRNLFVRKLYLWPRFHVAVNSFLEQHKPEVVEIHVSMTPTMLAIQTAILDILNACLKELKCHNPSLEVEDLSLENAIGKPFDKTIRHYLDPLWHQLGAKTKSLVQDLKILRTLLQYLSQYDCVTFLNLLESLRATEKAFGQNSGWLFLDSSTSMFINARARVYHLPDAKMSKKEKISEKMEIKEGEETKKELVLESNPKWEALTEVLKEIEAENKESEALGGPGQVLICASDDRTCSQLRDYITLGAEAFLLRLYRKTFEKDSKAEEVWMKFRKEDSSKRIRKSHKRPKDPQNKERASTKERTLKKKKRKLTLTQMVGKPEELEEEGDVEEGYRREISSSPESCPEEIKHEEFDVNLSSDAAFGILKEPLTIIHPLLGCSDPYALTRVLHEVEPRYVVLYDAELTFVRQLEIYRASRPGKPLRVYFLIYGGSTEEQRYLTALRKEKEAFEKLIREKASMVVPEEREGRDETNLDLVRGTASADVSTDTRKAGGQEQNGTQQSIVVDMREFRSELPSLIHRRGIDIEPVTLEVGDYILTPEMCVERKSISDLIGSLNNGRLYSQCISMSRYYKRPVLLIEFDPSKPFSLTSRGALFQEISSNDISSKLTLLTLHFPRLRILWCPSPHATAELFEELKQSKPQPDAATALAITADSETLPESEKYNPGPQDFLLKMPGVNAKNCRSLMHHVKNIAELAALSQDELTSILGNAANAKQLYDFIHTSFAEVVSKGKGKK
From the text: This assay has been previously described (29), and utilizes a stem-loop substrate (composed of a 10mer-duplex stem and a 20mer-oligodT single-strand loop), labelled on the 5′-terminus with 6-FAM and 3′ with the quencher dabcyl.
Human ERCC1-XPF wild-type protein was obtained as previously described (29). Basically, the recombinant protein was expressed from a bicistronic plasmid (provided by Dr. Richard Wood, University of Texas MD Anderson Cancer Center, Smithville, Tex.) in the E. coli BL21 (DE3) strain. Since both XPF and ERCC1 contained a polyhistidine (His-6) tag, the proteins extracted from E. coli were incubated with a ProBond Nickel-Chelating Resin (Thermo Fisher Scientific). Protein eluted from the Ni affinity column was subsequently loaded into a Hi-trap heparin column (GE Healthcare). Fractions recovered from the heparin column that contained ERCC1-XPF were dialyzed, concentrated and stored at −80° C. in 10 mM HEPES pH 7.4, 2.5 mM p-mercaptoethanol, 0.01% CHAPS, 0.25 mM EDTA, 50% glycerol and 25 mM NaCl.
A previously described protocol (2,29) was followed.

[3] = molecular target: T2, ERCC1-XPF complex (Homo sapiens, UniProt Q92889); experiment: Steady-state intrinsic tryptophan fluorescence quenching binding assay
T2 construct: His6; made in house; host or cells: E. coli BL21 (DE3)
T2 sequence (Q92889 1-916): T1 sequence (Q92889 1-916)
Protocol: Steady-state fluorescence spectra were measured at room temperature on a Perkin-Elmer LS-55 spectrofluorometer (Freemont, Calif.) with 5 nm spectral resolution for excitation and emission using 30-80 nM solution of purified recombinant ERCC1-XPF protein complex. […] In studying the effects of inhibitors on protein fluorescence intensities, additions to protein samples were made from inhibitors stock solutions, keeping the protein dilution below 3%.

[4] = system: HCT116 cells; experiment: Cellular repair of UV-induced cyclobutane pyrimidine dimers (immunofluorescence); type: cell-based, human; details: 8 J/m^2 UV-C, up to 24 h post-irradiation
Protocol: Protocol of Mirzayans et al. was followed with minor modifications (30). Approximately 1×10^5 HCT116 cells were seeded on each coverslip and allowed to attach overnight. Medium was then removed and cells were treated for one hour with the desired compound. The medium was removed, and cells were exposed to 8 J/m^2 UV-C radiation (G15T8 254 nm lamp, Ushio America Inc, Cypress, Calif.) followed by adding fresh medium containing the compound. Plates were incubated at 37° C. for different periods of time up to 24 hours and fixed in 50:50 methanol/1× phosphate-buffered saline (PBS) solution, followed by replacing the methanol/PBS solution with 100% methanol and incubation in −20° C. After 20 minutes, methanol was removed, and cells were treated with PBS for 5 minutes in room temperature. After fixing, cells were permeabilized in 0.5% Triton/PBS and washed with PBS, denatured in 2 N HCl, and neutralized by twice washing with 0.1 M borate buffer pH 8.5. Cells on cover slips were washed once with PBS followed by blocking with 5% non-fat dry milk/PBS for 30 minutes. Mouse anti-thymine dimer monoclonal antibody (Cat. No. MC-062, Kamiya Biomedical Company, Seattle, Wash.) was applied to the cover slips for one hour in the dark and at room temperature. Cells were then washed with PBS containing 0.1% Tween-20 and incubated with rabbit anti-mouse IgG-Alexafluor antibody (Invitrogen, Carlsbad, Calif.) followed by two washes with PBS/(0.1%)Tween-20. Cells on coverslips were then washed with PBS, rinsed with water, and mounted on slides using DAPI glycerol mounting solution. Slides were kept at 4° C. before fluorescent microscopic evaluation and measurement of fluorescence intensity with MetaXpress Version: 6.2.1.704 software (Molecular Devices, Sunnyvale, Calif.).
To test for inhibition of nucleotide excision repair, we monitored the cellular removal of UVC-induced cyclobutane pyrimidine dimers (CPDs) in HCT116 cells over a 24-hour period using an immunochemical assay.

[5] = ADME screening: solubility; type: physicochemical; details: Table 8
[6] = ADME screening: LogD
[7] = ADME screening: cell permeability and efflux ratio; details: Table 8
[8] = Microsomal stability in vitro (human liver microsomes); details: Table 8
[9] = system: HCT116 cells; experiment: Clonogenic survival assay, cyclophosphamide treatment; type: cell-based, human; details: cyclophosphamide 0-300 μM; compound 1-4 μM
Protocol: Plates were incubated for another 8 days at 37° C. in a 5% CO2 atmosphere for colony formation. After this period plates were stained with crystal violet, colonies were counted, and plating efficiency and surviving fraction were calculated.

## COc1ccc2nc3cc(Cl)ccc3c(Nc3ccc(O)c(CN4CCN(Cc5cccc(C)c5)CC4)c3)c2c1 [Compound A2, 4-((6-Chloro-2-methoxyacridin-9-yl)amino)-2-((4-(3-methylbenzyl)piperazin-1-yl)methyl)phenol]
[1]
  stability over time (in words): instability over time

## COc1ccc2nc3cc(Cl)ccc3c(Nc3ccc(O)c(CN4CCN(C5CCCCC5)CC4)c3)c2c1 [Compound A3, 4-((6-Chloro-2-methoxyacridin-9-yl)amino)-2-((4-cyclohexylpiperazin-1-yl)methyl)phenol]
[2]; Table 6, 30 minutes incubation, 5% DMSO, read-out: IC50 ± SD
  IC50: 380 ± 100 nM
[2]
  inhibition of ERCC1-XPF endonuclease activity (in words): marked capacity to inhibit; also recorded: potent inhibitors
[3]; Table 6, read-out: Kd ± SD
  Kd: 145 ± 5 nM

## COc1ccc2nc3cc(Cl)ccc3c(Nc3ccc(O)c(CN4CCN(c5ccc(Cl)c(Cl)c5)CC4)c3)c2c1 [Compound A5, 4-((6-Chloro-2-methoxyacridin-9-yl)amino)-2-((4-(3,4-dichlorophenyl)piperazin-1-yl)methyl)phenol]
[2]
  inhibition of ERCC1-XPF endonuclease activity (in words): very limited inhibition
[3]; 2 μM compound, excitation 295 nm
  quenching of protein fluorescence at 330 nm: 3±1%
[4]
  inhibition of cellular removal of CPDs / thymidine dimers (in words): failed to inhibit the cellular removal of CPDs

## COc1ccc2nc3cc(Cl)ccc3c(Nc3cc(CN4CCCC4)c(O)c(CN4CCCC4)c3)c2n1 [Compound D4, pyronaridine, reference compound]
[2]; Table 7, read-out: IC50
  IC50: 321 ± 22 nM
[2]
  inhibition of ERCC1-XPF endonuclease activity (in words): potent inhibitor; also recorded: strong inhibitory effect
[3]; Table 7, read-out: Kd protein
  Kd: 150 ± 10 nM
[5]
  Solubility (in words): Highly soluble
[6]; Table 8
  LogD (rating): Good
[6]; pH 7.4
  logD: 2.31
[7]
  Cell permeability (Mean recovery %) (in words): Low (common)
[8]
  Microsomal stability in vitro CLint (in words): Moderate

## CN1CCN(Cc2cc(N)ccc2O)CC1 [Gen B4]
[2]
  inhibition of ERCC1-XPF endonuclease activity (in words): complete loss of inhibition

## CN1CCN(Cc2cc(Nc3c4ccc(Cl)cc4nc4ccc(O)cc34)ccc2O)CC1 [Gen B5]
[2]
  inhibition of ERCC1-XPF endonuclease activity (in words): marked capacity to inhibit

## COc1ccc2nc3cc(Cl)ccc3c(Nc3ccc(O)c(CN4CCN(CCNc5ccccc5)CC4)c3)c2c1 [Gen C-5, 4-((6-Chloro-2-methoxyacridin-9-yl)amino)-2-((4-(2-(phenylamino)ethyl)piperazin-1-yl)methyl)-phenol]
[9]
  sensitisation to cyclophosphamide, clonogenic survival (in words): no significant sensitisation effect
